This note sets out measurements from patent EP4608400B1, “COMPOUND FOR TREATMENT OF PAIN” (Initiator Pharma A/S, priority 2022, dated 2024).

Series [1] in a line: Phase I crossover study, intradermal capsaicin model: safety evaluation (TEAEs). Format: in vivo, human. How it is done:
In order to maintain the blind, a double dummy approach was used.
Safety was assessed through AE reporting, 12-lead ECG, vital signs, physical examinations and clinical laboratory evaluations. Pharmacokinetics was assessed by blood sampling.

The test system of the next series is CCI rats. In words: Rat chronic constriction injury (CCI) model of neuropathic pain. Format: in vivo, Sprague-Dawley rats. To be noted: for paw withdrawal duration (pin prick) / weight bearing difference / paw withdrawal threshold (von Frey stimulation): 60 min prior; for paw withdrawal duration (pin prick): vehicle about 14.9 s; for weight bearing difference: vehicle about 51 %; for paw withdrawal threshold (von Frey stimulation): vehicle around 1.1 g. How it is done: All treatments were administered s.c. in a dosing volume of 2 ml/kg 60 min prior to behavioural assessment.
Adult male Sprague-Dawley rats (Harlan Scandinavia, Alleroed, Denmark) were used. They were housed in Macrolon III cages (20 x 14 x 18 cm or 20 x 40 x18 cm; in groups of 2-5 per cage according to weight) containing wood-chip bedding material (3 x 1 x 4 mm). The environment was temperature (20 ± 2°C) and humidity (55 ± 15%) controlled and consisted of a light-dark cycle of 13:11 h (lights on at 06.00 h and off at 19.00 h). Food (Altromin®) and water were available ad libitum. The rats were allowed to habituate to the housing facilities for at least one week prior to being randomly assigned to behavioural experiments. All experiments were performed according to the Ethical Guidelines of the International Association for the Study of Pain (Zimmermann, 1983) and the Danish Committee for Experiments on Animals.
All drug testing in CCI rats was performed blinded by the observer. A 2-3 day drug washout period was allowed, and the studies were conducted between 4-5 weeks after surgery. CCI rats used in this study had also been previously enrolled in similar experiments assessing the efficacy of other compound(s). Only those animals with distinct neuropathic behavior (von Frey response <4 g, pin prick response >10 s) were included in the study. Table C: Experimental groups
Chronic constriction injury procedure. A chronic constriction injury (CCI) was performed in rats (body weight 180-220 g at the time of surgery) under isoflurane anaesthesia as described previously (Bennett and Xie, 1988). The sciatic nerve was exposed at the mid-thigh level proximal to the sciatic trifurcation. Four chromic gut ligatures (4/0) (Ethicon, New Brunswick, NJ) were tied loosely around the nerve, 1-2 mm apart, such that the vascular supply was not compromised. The overlying muscle was closed in layers with 4/0 synthetic absorbable surgical suture. The skin was closed and sutured with 4/0 silk thread.
Behavioural testing of nerve-injured rats. Nerve-injured rats were routinely tested for the presence of pain-like behaviours for up to 5 weeks after surgery, according to previously described methods (Munro et al., 2008). For testing of mechanical hypersensitivity individual rats were removed from their home cage and allowed to habituate for 15 min in a 15 x 20 cm white Plexiglas testing cage, placed upon an elevated metal grid allowing access to the plantar surface of the injured hindpaw. The presence of mechanical allodynia was assessed using a series of calibrated von Frey hairs (lower limit=0.065 and upper limit=19.3 g, Stoelting Co, Wood Dale IL), which were applied to the plantar surface of the hindpaw with increasing force until an individual filament used just started to bend. The filament was applied for a period of 1-2 s and was repeated 5 times at 1-2 s intervals. The filament that induced a reflex paw withdrawal in 3 out of 5 applications was considered to represent the threshold level for a response to occur. The presence of mechanical hyperalgesia was determined by pressing the plantar surface of the hindpaw with the point of a safety pin, at an intensity sufficient to produce a reflex withdrawal response in normal unoperated animals, but at an intensity which was insufficient to penetrate the skin. A cut-off time of 15 s was applied to long withdrawals often seen for the nerve-injured paw.
Changes in hindpaw weight bearing were assessed using an incapacitance tester (Linton Instrumentation, U.K.), which incorporates a dual channel scale used to separately assess the weight distributed to each hindpaw of the rat. Normally, uninjured rats distribute their weight evenly between the two hindpaws (50:50). However, after tissue injury the rat preferentially favours the non-injured hindpaw, such that the weight bearing difference can be used as an index of spontaneous nociception. […]

SMILES strings stand for the structures.

With `COc1cc2ccc(O[C@@H]3C[C@H]4CC[C@@H](C3)N4)cc2oc1=O` [IP2015, exo-7-[(8-azabicyclo[3.2.1]octan-3-yl)oxy]-3-methoxy-chromen-2-one], in series [1] (5 mg IP2015 and 10 mg IP2015), the “severity of all TEAEs” value was “mild”. Moreover, in series [1] (5 mg IP2015 single oral dose), the “incidence of TEAEs (share of subjects)” value was found to be 29.2%, the “number of TEAEs reported” value is 10 events and the “subjects reporting TEAEs” value is 7 subjects. Further, in series [1] (10 mg IP2015 single oral dose), the “incidence of TEAEs (share of subjects)” value turned out to be 54.2%, the “number of TEAEs reported” value is recorded as 19 events and the “subjects reporting TEAEs” value was determined as 13 subjects. Besides, in the series on CCI rats (3 mg/kg s.c.), the “paw withdrawal duration (pin prick)” value is “about 12.3 s”, the weight bearing difference result is “about 17%” and the “paw withdrawal threshold (von Frey stimulation)” value is “about 5.7 g”. In the series with CCI rats (10 mg/kg s.c.), the “paw withdrawal duration (pin prick)” value was “about 11.1 s”, the weight bearing difference entry is “about 11%” and the “paw withdrawal threshold (von Frey stimulation)” value was “about 3.6 g”. Also, in the series with CCI rats (3, 10 mg/kg s.c., CCI rats), the “CCI induced weight bearing deficits (overall effect)” value is “robust dose-dependent reversal” and the “hindpaw withdrawal threshold to mechanical von Frey stimulation (overall effect)” value is “small but significant increase”. Also, the “behavioural observation in CCI rats” value with CCI rats (10 and especially 30 mg/kg s.c.) was “extremely alert, and possibly displayed signs of anxiogenic behaviour”.
